Assay results as given in US10981892B2, “Acyl sulfonamides that are Bcl family antagonists for use in clinical management of conditions caused or mediated by senescent cells and for treating cancer” (Unity Biotechnology, Inc., priority 2018, dated 2021).
Entries after “also recorded” stand apart in the source; their conditions may differ. One block for each molecule: values may come before it.

Legend:
[1] = tested on: cigarette smoke induced COPD model, 3MR or INK-ATTAC mice; assay: Cigarette smoke (CS) induced COPD model, oxygen saturation; type: in vivo, mouse; settings: after two months of cigarette smoke exposure, compared with untreated controls
Protocol: As a model for chronic obstructive pulmonary disease (COPD), mice were exposed to cigarette smoke. The effect of a senolytic agent on the mice exposed to smoke is assessed by senescent cell clearance, lung function, and histopathology. The mice used in this study include the 3MR strain, described in US 2017/0027139 A1 and in Demaria et al., Dev Cell. 2014 Dec. 22; 31(6): 722-733. […] The enzyme in the transgene is placed under control of the p16 promoter, which causes it to be specifically expressed in senescent cells. Treatment of the mice with GCV eliminates senescent cells. Other mice used in this study include the […] strain, described in US 2015/0296755 A1 and in Baker et al., Nature 2011 Nov. 2; 479(7372):232-236. The […] mouse has a transgene encoding switchable caspase 8 under control of the p16 promoter. The caspase 8 can be activated by treating the mice with the switch compound AP20187, whereupon the caspase 8 directly induces apoptosis in senescent cells, eliminating them from the mouse. To conduct the experiment, six-week-old 3MR (n=35) or […]=35) mice were chronically exposed to cigarette smoke generated from a Teague TE-10 system, an automatically-controlled cigarette smoking machine that produces a combination of side-stream and mainstream cigarette smoke in a chamber, which is transported to a collecting and mixing chamber where varying amounts of air is mixed with the smoke mixture. The COPD protocol was adapted from the COPD core facility at Johns Hopkins University (Rangasamy et al., 2004, J. Clin. Invest. 114:1248-1259; Yao et al., 2012, J. Clin. Invest. 122:2032-2045). Mice received a total of 6 hours of cigarette smoke exposure per day, 5 days a week for 6 months. Each lighted cigarette (3R4F research cigarettes containing 10.9 mg of total particulate matter (TPM), 9.4 mg of tar, and 0.726 mg of nicotine, and 11.9 mg carbon monoxide per cigarette [University of Kentucky, Lexington, Ky.]) was puffed for 2 seconds and once every minute for a total of 8 puffs, with the flow rate of 1.05 L/min, to provide a standard puff of 35 cm3. The smoke machine was adjusted to produce a mixture of side stream smoke (89%) and mainstream smoke (11%) by smoldering 2 cigarettes at one time. The smoke chamber atmosphere was monitored for total suspended particulates (80-120 mg/m3) and carbon monoxide (350 ppm). […] An equal number of mice received the corresponding vehicle. […] After two months of cigarette smoke (CS) exposure, lung function was assessed by monitoring oxygen saturation using the MouseSTAT PhysioSuiteTM pulse oximeter (Kent Scientific). […] Mice were monitored for 30 seconds and the average peripheral capillary oxygen saturation (SpO2) measurement over this duration was calculated.

[2] = background statement; cited from earlier work
[3] = tested on: osteoarthritis model, C57BL/6J mice; assay: Osteoarthritis model (ACL surgery), intra-articular injection; type: in vivo, mouse
Protocol: This example illustrates the testing of an MDM2 inhibitor in a mouse model for treatment of osteoarthritis. It can be adapted mutatis mutandis to test and develop Bcl inhibitors for use in clinical therapy.
The model was implemented as follows. C57BL/6J mice underwent surgery to cut the anterior cruciate ligament of one rear limb to induce osteoarthritis in the joint of that limb. During week 3 and week 4 post-surgery, the mice were treated with 5.8 μg of Nutlin-3A (n=7) per operated knee by intra-articular injection, q.o.d. for 2 weeks. At the end of 4 weeks post-surgery, joints of the mice were monitored for presence of senescent cells, assessed for function, monitored for markers of inflammation, and underwent histological assessment.
Two control groups of mice were included in the studies performed: one group comprising C57BL/6J or 3MR mice that had undergone a sham surgery (n=3) (i.e., surgical procedures followed except for cutting the ACL) and intra-articular injections of vehicle parallel to the GCV (ganciclovir) treated group; and one group comprising C57BL/6J or 3MR mice that had undergone an ACL surgery and received intra-articular injections of vehicle (n=5) parallel to the GCV-treated group. RNA from the operated joints of mice from the Nutlin-3A treated mice was analyzed for expression of SASP factors (mmp3, IL-6) and senescence markers (p16). qRT-PCR was performed to detect mRNA levels.
Function of the limbs was assessed 4 weeks post-surgery by a weight bearing test to determine which leg the mice favored. The mice were allowed to acclimate to the chamber on at least three occasions prior to taking measurements. Mice were maneuvered inside the chamber to stand with one hind paw on each scale. The weight that was placed on each hind limb was measured over a three second period. At least three separate measurements were made for each animal at each time point. The results were expressed as the percentage of the weight placed on the operated limb versus the contralateral unoperated limb.

[4] = tested on: atherosclerosis model, LDLR-/- mice; assay: Atherosclerosis model, LDLR-/- mice fed a high fat diet, systemic administration; type: in vivo, mouse
Protocol: This example illustrates the testing of an MDM2 inhibitor in a mouse model for treatment of atherosclerosis. The test compounds are administered systemically rather than locally. The model is done in an LDLR−/− strain of mice, which are deficient in the receptor for low-density lipoprotein. The experiments described here can be adapted mutatis mutandis to test and develop other types of inhibitors for use in clinical therapy.
Two groups of LDLR−/− mice (10 weeks) are fed a high fat diet (HFD) (Harlan Teklad TD.88137) having 42% calories from fat, beginning at Week 0 and throughout the study. Two groups of LDLR−/− mice (10 weeks) are fed normal chow (−HFD). From weeks 0-2, one group of HFD mice and —HFD mice are treated with Nutlin-3A (25 mg/kg, intraperitoneally). One treatment cycle is 14 days treatment, 14 days off. Vehicle is administered to one group of HFD mice and one group of −HFD mice. At week 4 (timepoint 1), one group of mice are sacrificed and to assess presence of senescent cells in the plaques. For the some of the remaining mice, Nutlin-3A and vehicle administration is repeated from weeks 4-6. At week 8 (timepoint 2), the mice are sacrificed and to assess presence of senescent cells in the plaques. The remaining mice are treated with Nutlin-3A or vehicle from weeks 8-10. At week 12 (timepoint 3), the mice are sacrificed and to assess the level of plaque and the number of senescent cells in the plaques.
Plasma lipid levels were measured in LDLR−/− mice fed a HFD and treated with Nutlin-3A or vehicle at timepoint 1 as compared with mice fed a —HFD (n=3 per group). Plasma was collected mid-afternoon and analyzed for circulating lipids and lipoproteins.
At the end of timepoint 1, LDLR−/− mice fed a HFD and treated with Nutlin-3A or vehicle were sacrificed (n=3, all groups), and the aortic arches were dissected for RT-PCR analysis of SASP factors and senescent cell markers. Values were normalized to GAPDH and expressed as fold-change versus age-matched, vehicle-treated LDLR−/− mice on a normal diet.
At the end of timepoint 2, LDLR−/− mice fed a HFD and treated with Nutlin-3A or vehicle (n=3 for all groups) were sacrificed, and aortic arches were dissected for RT-PCR analysis of SASP factors and senescent cell markers. Values were normalized to GAPDH and expressed as fold-change versus age-matched, vehicle-treated LDLR−/− mice on a normal diet.
At the end of timepoint 3, LDLR−/− mice fed a HFD and treated with Nutlin-3A or vehicle (n=3 for all groups) were sacrificed, and aortas were dissected and stained with Sudan IV to detect the presence of lipid. Body composition of the mice was analyzed by MRI, and circulating blood cells were counted by Hemavet™.

Compound: CC1(C)CCC(c2ccc(Cl)cc2)=C(CN2CCN(c3ccc(C(=O)NS(=O)(=O)c4ccc(N[C@H](CCN5CCOCC5)CSc5ccccc5)c(S(=O)(=O)C(F)(F)F)c4)cc3)CC2)C1 [ABT-263, Navitoclax]
SpO2 levels [1]: statistically significant increases

Compound: CN(C)CC[C@H](CSc1ccccc1)Nc1ccc(S(=O)(=O)NC(=O)c2ccc(N3CCN(Cc4ccccc4-c4ccc(Cl)cc4)CC3)cc2)cc1[N+](=O)[O-] [ABT-737]
dose-limiting toxicity in human patients [2]: dose-limiting thrombocytopenia

Compound: CC[C@H](C(=O)N1CCCC[C@H]1C(=O)O[C@H](CCc1ccc(OC)c(OC)c1)c1cccc(OCC(=O)NCC(CNC(=O)COc2cccc([C@@H](CCc3ccc(OC)c(OC)c3)OC(=O)[C@@H]3CCCCN3C(=O)[C@@H](CC)c3cc(OC)c(OC)c(OC)c3)c2)CN(C)C)c1)c1cc(OC)c(OC)c(OC)c1 [AP2018]
SpO2 levels [1]: statistically significant increases

platelet and lymphocyte counts versus vehicle treated mice ([4]; timepoint 3, Hemavet): equivalent
Compound: COc1ccc(C2=N[C@@H](c3ccc(Cl)cc3)[C@@H](c3ccc(Cl)cc3)N2C(=O)N2CCNC(=O)C2)c(OC(C)C)c1 [Nutlin-3A]
clearance of senescent cells from the joint ([3]; 5.8 μg per knee intra-articular): cleared senescent cells from the joint | weight bearing: favoring of unoperated over operated hind limb ([3]; 4 weeks post-surgery): abrogated this effect | histopathology: destruction of the proteoglycan layer ([3]; joint tissue after ACL surgery): completely abrogated this effect | expression of p16, IL-6, and MMP13 in the tissue ([3]; operated joint, qRT-PCR, 4 weeks post-surgery, 5.8 μg per knee intra-articular q.o.d. 2 weeks): reduced the expression back to below the level of the controls; also recorded: ameliorated | SpO2 levels [1]: statistically significant increases | expression of SASP factors and senescent cell markers in aortic arch, timepoint 2 ([4]; HFD, multiple treatment cycles, 25 mg/kg i.p., RT-PCR): reduced expression of most markers | expression of SASP factors and senescent cell markers in aortic arch, timepoint 1 ([4]; HFD, one treatment cycle, 25 mg/kg i.p., MMP3, MMP13, PAI1, p21, IGFBP2, IL-1A, IL-1B, RT-PCR): reduced expression of several SASP factors and senescent cell markers | reduction of surface area covered by plaques in the descending aorta ([4]; HFD, timepoint 3 (week 12), Sudan IV staining): about 45% | mass and body fat composition ([4]; mice fed the high fat diet, MRI, timepoint 3): decreased

Compound: Nc1nc(O)c2ncn(COC(CO)CO)c2n1 [ganciclovir]
SpO2 levels [1]: statistically significant increases
